Results taken from PubChem BioAssay AID1963446 (Molecular Pharmacology Branch, DTP, NCI, 2024).
Values joined by “and” are separate entries in the source; they are usually repeats but may differ in a detail not shown here. Equal values may be shown once.

Test system: 993429-296-R-J1-PDC complex spheroid growth, percent test/control
Experiment: Anticancer human tumor 993429-296-R-J1-PDC patient-derived uterine sarcoma cell line growth inhibition [Asc]
Conditions: for viability, T/C: stronger effect = lower value
How it was run: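 Tumor cells were grown as complex spheroids with human endothelial cells (HUVEC) and human mesenchymal stem cells as stroma. Agents were tested alone and in combination, in half-log steps down from the clinical Cmax, or from 10 microM where Cmax was unknown.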

[1] = curve of first compound, second compound 0.1 µM
[2] = curve of first compound, second compound 0.316 µM
[3] = curve of first compound, second compound 1 µM
[4] = second compound 0.1 µM, first compound 0.0316 µM
[5] = second compound 0.1 µM, first compound 0.1 µM
[6] = second compound 0.1 µM, first compound 0.316 µM
[7] = second compound 0.1 µM, first compound 1 µM
[8] = second compound 0.1 µM, first compound 3.16 µM
[9] = second compound 0.1 µM, first compound 10 µM
[10] = second compound 0.316 µM, first compound 0.0316 µM
[11] = second compound 0.316 µM, first compound 0.1 µM
[12] = second compound 0.316 µM, first compound 0.316 µM
[13] = second compound 0.316 µM, first compound 1 µM
[14] = second compound 0.316 µM, first compound 3.16 µM
[15] = second compound 0.316 µM, first compound 10 µM
[16] = second compound 1 µM, first compound 0.0316 µM
[17] = second compound 1 µM, first compound 0.1 µM
[18] = second compound 1 µM, first compound 0.316 µM
[19] = second compound 1 µM, first compound 1 µM
[20] = second compound 1 µM, first compound 3.16 µM
[21] = second compound 1 µM, first compound 10 µM
[22] = curve of first compound, second compound 0.01 µM
[23] = curve of first compound, second compound 0.0316 µM
[24] = second compound 0.01 µM, first compound 0.0316 µM
[25] = second compound 0.01 µM, first compound 0.1 µM
[26] = second compound 0.0316 µM, first compound 0.0316 µM
[27] = second compound 0.0316 µM, first compound 0.1 µM
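Note: spheroids exposed to compounds for seven days.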

O=C(c1cc(Cc2n[nH]c(=O)c3ccccc23)ccc1F)N1CCN(C(=O)C2CC2)CC1 + Cc1c(S(C)(=O)=O)c(-c2cc(F)cc(N3CCN(c4ccc(NS(=O)(=O)c5ccc(NC(CCN6CCC(C(=O)OCCCP(=O)(O)O)CC6)CSc6ccccc6)c(S(=O)(=O)C(F)(F)F)c5)cc4)CC3)c2)c(-c2ccc(Cl)cc2)n1C(C)C
IC50 [1]: 944 nM
IC50 [2]: 1110 nM
IC50 [3]: 773 nM
IC50 (curve of first compound, second compound 3.16 µM): < 31.6 nM
IC50 (curve of first compound, second compound 10 µM): 1480 nM
viability, T/C [4]: 89.2%
viability, T/C [5]: 53.2%
viability, T/C [6]: 56.9%
viability, T/C [7]: 59.6%
viability, T/C [8]: 37.8%
viability, T/C [9]: 9.27%
viability, T/C [10]: 55.8%
viability, T/C [11]: 51.1%
viability, T/C [12]: 69.8%
viability, T/C [13]: 49.3%
viability, T/C [14]: 29.1%
viability, T/C [15]: 8.15%
viability, T/C [16]: 51.5%
viability, T/C [17]: 55.8%
viability, T/C [18]: 57.2%
viability, T/C [19]: 48.2%
viability, T/C [20]: 20.5%
viability, T/C [21]: 5.17%
viability, T/C (second compound 3.16 µM, first compound 0.0316 µM): 42%
viability, T/C (second compound 3.16 µM, first compound 0.1 µM): 39%
viability, T/C (second compound 3.16 µM, first compound 0.316 µM): 44.3%
viability, T/C (second compound 3.16 µM, first compound 1 µM): 32.6%
viability, T/C (second compound 3.16 µM, first compound 3.16 µM): 19.3%
viability, T/C (second compound 3.16 µM, first compound 10 µM): 4.24%
viability, T/C (second compound 10 µM, first compound 0.0316 µM): 86.9%
viability, T/C (second compound 10 µM, first compound 0.1 µM): 85.8%
viability, T/C (second compound 10 µM, first compound 0.316 µM): 59.9%
viability, T/C (second compound 10 µM, first compound 1 µM): 70%
viability, T/C (second compound 10 µM, first compound 3.16 µM): 13.5%
viability, T/C (second compound 10 µM, first compound 10 µM): 1.63%

NC1CCC(NC2CC2c2ccccc2)CC1 (configuration not stated)
viability, T/C (compound 0.000316 µM): 72.9% and 80.7% and 109%
viability, T/C (compound 0.001 µM): 70.1% and 86.3% and 87%
viability, T/C (compound 0.00316 µM): 85.3% and 78.1% and 85.6%
viability, T/C (compound 0.01 µM): 78.4% and 94.6% and 91.1%
viability, T/C (compound 0.0316 µM): 68% and 88.5% and 86.8%
viability, T/C (compound 0.1 µM): 74.9% and 76.6% and 79.7%
IC50 (curve of compound): > 100 nM

C#Cc1c(F)ccc2cc(O)cc(-c3ncc4c(N5CC6CCC(C5)N6)nc(OCC56CCCN5CC(F)C6)nc4c3F)c12 (configuration not stated) + CNC(C)C(=O)NC1CN(S(=O)(=O)c2cccc(S(=O)(=O)N3CCC4CCC(C(=O)NC(c5ccccc5)c5ccccc5)N4C(=O)C(NC(=O)C(C)NC)C3)c2)CCC2CCC(C(=O)NC(c3ccccc3)c3ccccc3)N2C1=O
IC50 [22]: 4700 nM
IC50 [23]: 4620 nM
IC50 [1]: 2630 nM
IC50 [2]: 3310 nM
IC50 [3]: < 31.6 nM
viability, T/C [24]: 71.7%
viability, T/C [25]: 67.2%
viability, T/C (second compound 0.01 µM, first compound 0.316 µM): 69.5%
viability, T/C (second compound 0.01 µM, first compound 1 µM): 57.3%
viability, T/C (second compound 0.01 µM, first compound 3.16 µM): 64.3%
viability, T/C (second compound 0.01 µM, first compound 10 µM): 25.6%
viability, T/C [26]: 58.8%
viability, T/C [27]: 66.6%
viability, T/C (second compound 0.0316 µM, first compound 0.316 µM): 56.5%
viability, T/C (second compound 0.0316 µM, first compound 1 µM): 67.4%
viability, T/C (second compound 0.0316 µM, first compound 3.16 µM): 60.5%
viability, T/C (second compound 0.0316 µM, first compound 10 µM): 28%
viability, T/C [4]: 61%
viability, T/C [5]: 62.1%
viability, T/C [6]: 67.1%
viability, T/C [7]: 61.7%
viability, T/C [8]: 47.7%
viability, T/C [9]: 28.4%
viability, T/C [10]: 45.2%
viability, T/C [11]: 55.8%
viability, T/C [12]: 43.3%
viability, T/C [13]: 48.8%
viability, T/C [14]: 64.7%
viability, T/C [15]: 16.3%
viability, T/C [16]: 49.9%
viability, T/C [17]: 50.2%
viability, T/C [18]: 39.5%
viability, T/C [19]: 58%
viability, T/C [20]: 50.2%
viability, T/C [21]: 25%

Cn1ncnc1[C@H]1c2n[nH]c(=O)c3cc(F)cc(c23)N[C@@H]1c1ccc(F)cc1 + CNC(C)C(=O)NC1CN(S(=O)(=O)c2cccc(S(=O)(=O)N3CCC4CCC(C(=O)NC(c5ccccc5)c5ccccc5)N4C(=O)C(NC(=O)C(C)NC)C3)c2)CCC2CCC(C(=O)NC(c3ccccc3)c3ccccc3)N2C1=O
IC50 [22]: 4.14 nM
IC50 [23]: 7.99 nM
IC50 [1]: 3.94 nM
IC50 [2]: 5.81 nM
IC50 [3]: < 0.316 nM
viability, T/C (second compound 0.01 µM, first compound 0.000316 µM): 75.9%
viability, T/C (second compound 0.01 µM, first compound 0.001 µM): 54.9%
viability, T/C (second compound 0.01 µM, first compound 0.00316 µM): 52.7%
viability, T/C (second compound 0.01 µM, first compound 0.01 µM): 47%
viability, T/C [24]: 32.6%
viability, T/C [25]: 21.3%
viability, T/C (second compound 0.0316 µM, first compound 0.000316 µM): 60.4%
viability, T/C (second compound 0.0316 µM, first compound 0.001 µM): 69.1%
viability, T/C (second compound 0.0316 µM, first compound 0.00316 µM): 54.1%
viability, T/C (second compound 0.0316 µM, first compound 0.01 µM): 48.9%
viability, T/C [26]: 35.9%
viability, T/C [27]: 26.5%
viability, T/C (second compound 0.1 µM, first compound 0.000316 µM): 52%
viability, T/C (second compound 0.1 µM, first compound 0.001 µM): 52.7%
viability, T/C (second compound 0.1 µM, first compound 0.00316 µM): 51.2%
viability, T/C (second compound 0.1 µM, first compound 0.01 µM): 45.3%
viability, T/C [4]: 32.5%
viability, T/C [5]: 23.2%
viability, T/C (second compound 0.316 µM, first compound 0.000316 µM): 56.5%
viability, T/C (second compound 0.316 µM, first compound 0.001 µM): 60.7%
viability, T/C (second compound 0.316 µM, first compound 0.00316 µM): 54.8%
viability, T/C (second compound 0.316 µM, first compound 0.01 µM): 44.4%
viability, T/C [10]: 17.5%
viability, T/C [11]: 13.7%
viability, T/C (second compound 1 µM, first compound 0.000316 µM): 50.6%
viability, T/C (second compound 1 µM, first compound 0.001 µM): 45.7%
viability, T/C (second compound 1 µM, first compound 0.00316 µM): 46.9%
viability, T/C (second compound 1 µM, first compound 0.01 µM): 39.4%
viability, T/C [16]: 21.6%
viability, T/C [17]: 10.9%
